pIC50: −log10 of the molar value. In brackets after ≈: the same amount, converted by molar mass.
Key:
[1] = system: human myelomonocytic, biphenotypic leukemia MV4-11 cells; experiment: Growth inhibition test (MTS) on MV4-11 cells; type: cell-based; settings: Homo sapiens, MV4-11, 72 hours, read-out: MV-4-11 ED50
Summary of the method: MV4-

[2] = system: human acute lymphocytic leukemia E6.1 Jurkat cells; experiment: Growth inhibition test (MTS) on E6.1 Jurkat cells; type: cell-based; settings: 72 hours, read-out: Jurkat ED50
[3] = system: human erytroblast leukemia HEL-92.1.7 cells; experiment: Growth inhibition test (MTS) on HEL-92.1.7 cells; type: cell-based; settings: 72 hours, read-out: HEL92 ED50
Method: Ten thousand cells of human erytroblast leukemia HEL-92.1.7 were inoculated into each well of a 96-well microplate (manufactured by Corning Corp.) using RPMI 1640 medium (culture medium) containing 10% fetal calf serum (FCS). Next day, a dimethyl sulfoxide (DMSO) solution of each test compound prepared in a concentration of 10 mmol/L was further diluted with culture medium to the desired concentrations (0.1, 0.5, 1, 2.5, 5 and 10 micromol/L), and the diluted solution was added to each well. The individual wells were further cultured in 5% carbon dioxide at 37° C. for 72 hours. After completion of the culture, 10 μl MTS (3-(4,5-Dimethyl-2-thiazolyl)-5-(carboxymethoxyphenyl)-2-(4-sulfophenyl)-2H-tetrazolium, inner salt assay (CellTiter96® AQueous One Solution Cell Proliferation Assay, Promega) was added to each well, and culturing was performed in 5% carbon dioxide at 37° C. for 2 hours. Using a microplate spectrophotometer (Synergy 2 multi-mode microplate reader (BioTek)), the absorbance of each well was measured at 490 nm. The value for cells not incorporated with a test compound was designated as 100%. By comparing these values with the absorbance difference obtained at the well in which each test compound was added, the cell viability (% viability) after treatment with the test compound was calculated.

[4] = system: human breast adenocarcinoma MCF7 cells; experiment: Growth inhibition test (MTS) on MCF7 cells; type: cell-based; settings: Homo sapiens, MCF7, 72 hours, read-out: MCF-7 ED50
Summary of the method: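 MCF7 cells seeded in DMEM with 10% FCS, dosed next day at 0.1–10 micromol/L (diluted from 10 mmol/L DMSO stock) and cultured 72 h at 37° C, 5% CO2. MTS added for 2 h, absorbance read at 490 nm; % viability calculated relative to untreated cells as 100%.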

[5] = system: tumors derived from MV4-11 cells xenografted in nude mice; experiment: In vivo anticancer activity, MV4-11 xenograft; settings: QD, PO; for TGI (%): 150 mg/kg, 21 days, MV4-11 xenograft in nude mice; for tumor growth inhibition (in words): after 21 days of treatment
Method: The anticancer activity of compounds 20, 359 and 416 was assessed on tumors derived from MV4-11 cells xenografted in nude mice. Mice were inoculated with 5*10^6 cells and the tumor volume was measured until it reached 100 mm^3. Throughout the whole study tumor volume has been measured (FIG. 2) and tumor growth inhibition (TGI) was calculated.

[6] = Solubility in phosphate buffer pH 7.4; type: physicochemical; settings: aqueous buffer, kinetic from dmso stock, pH 7.4, 24 hours at 37° C., 1% DMSO
Text: In general, tetrahalogenated benzimidazoles are poorly soluble compounds, what renders their chances for successful therapeutic administration in commonly used routes of administration and standard conditions. In contrast to previously published tetrabromobenzimidazoles exemplified by DMAT, certain compounds provided in the application show a markedly increase in water solubility. As solubility is one of the key parameters that influences compound pharmacokinetics, permeability and therefore also activity in vitro and in vivo, improved solubility of the selected compounds is a surprising feature that can lead to improved efficacy in treating PIM kinase associated disease conditions.

Flt3(D835Y)(h) = Flt3(D835Y)(h) (Homo sapiens (Human), UniProt P36888, D835Y); experiment: KinaseProfiler kinase panel; type: biochemical
Lck(h) = Lck(h) (Homo sapiens (Human), UniProt P06239); experiment: KinaseProfiler kinase panel; type: biochemical
Chain of Lck(h) (P06239 whole entry): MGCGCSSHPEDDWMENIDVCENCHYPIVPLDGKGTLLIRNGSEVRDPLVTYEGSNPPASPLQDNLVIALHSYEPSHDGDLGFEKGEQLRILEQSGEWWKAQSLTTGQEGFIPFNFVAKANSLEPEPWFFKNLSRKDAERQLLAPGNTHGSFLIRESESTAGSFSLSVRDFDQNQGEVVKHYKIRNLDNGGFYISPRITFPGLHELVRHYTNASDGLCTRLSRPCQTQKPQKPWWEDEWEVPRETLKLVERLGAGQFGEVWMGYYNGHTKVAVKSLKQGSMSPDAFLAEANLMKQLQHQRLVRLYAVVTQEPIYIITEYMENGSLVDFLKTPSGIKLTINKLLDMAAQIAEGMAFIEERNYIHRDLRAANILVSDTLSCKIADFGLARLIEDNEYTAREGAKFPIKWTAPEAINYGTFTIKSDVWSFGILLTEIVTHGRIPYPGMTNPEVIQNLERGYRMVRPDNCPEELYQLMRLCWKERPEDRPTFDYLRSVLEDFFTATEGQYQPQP

pIC50 [1] | pIC50 [2] | pIC50 [3] | pIC50 [4] | remaining activity at 1 µM (Flt3(D835Y)(h)) [%] | remaining activity at 1 µM (Lck(h)) [%] | Compound | TGI (%) [5] [%] | tumor growth inhibition (in words) [5] | solubility at 24 h [6] [µM]
6.00 |  | 5.12 | 5.52 |  |  | CN1CCCC(Nc2nc3c(Br)c(Br)c(Br)c(Br)c3[nH]2)CC1 (stereo not shown) [Compound 358, 4,5,6,7-tetrabromo-N-(1-methylazepan-4-yl)-1H-benzo[d]imidazol-2-amine] |  |  | 
6.22 |  | 5.41 | 5.80 |  |  | CC(C)n1c(N2CCNCC2)nc2c(Br)c(Br)c(Br)c(Br)c21 [Compound 359, 4,5,6,7-tetrabromo-1-isopropyl-2-(piperazin-1-yl)-1H-benzo[d]imidazole] | −84.7 | most pronounced tumor growth inhibition | 
6.22 |  | 5.29 | 5.67 |  |  | Brc1c(Br)c(Br)c2[nH]c(NC3CCCNCC3)nc2c1Br (stereo not shown) [Compound 366, N-(azepan-4-yl)-4,5,6,7-tetrabromo-1H-benzo[d]imidazol-2-amine] |  |  | 
5.89 |  | 5.52 | 5.82 |  |  | Brc1c(Br)c(Br)c2c(nc(N3CCNCC3)n2Cc2ccccc2)c1Br [Compound 374, 1-benzyl-4,5,6,7-tetrabromo-2-(piperazin-1-yl)-1H-benzo[d]imidazole] |  |  | 
5.48 |  | 5.21 | 5.61 |  |  | Brc1c(Br)c(Br)c2[nH]c(N3CCC(C4CCNCC4)CC3)nc2c1Br [Compound 386, 4,5,6,7-tetrabromo-2-(4-(piperidin-4-yl)piperidin-1-yl)-1H-benzo[d]imidazole] |  |  | 
6.26 |  | 5.57 | 5.90 | 1 | 43 | CCn1c(N2CCNCC2)nc2c(Br)c(Br)c(Br)c(Br)c21 [Compound 416, 4,5,6,7-tetrabromo-1-ethyl-2-(piperazin-1-yl)-1H-benzo[d]imidazole] | −102.8 | most pronounced tumor growth inhibition | 
6.25 |  | 5.48 | 5.60 |  |  | CCCn1c(N2CCNCC2)nc2c(Br)c(Br)c(Br)c(Br)c21 [Compound 417, 4,5,6,7-tetrabromo-2-(piperazin-1-yl)-1-propyl-1H-benzo[d]imidazole] |  |  | 
6.17 |  | 5.24 | 5.46 |  |  | Brc1c(Br)c(Br)c2[nH]c(NC3CCNCC3)nc2c1Br [Compound 435, 4,5,6,7-tetrabromo-N-(piperidin-4-yl)-1H-benzo[d]imidazol-2-amine] |  |  | 
6.15 |  | 6.22 | 5.89 |  |  | CCn1c(N2CCN(CCN3CCNCC3)CC2)nc2c(Br)c(Br)c(Br)c(Br)c21 [Compound 441, 4,5,6,7-tetrabromo-1-ethyl-2-(4-(2-(piperazin-1-yl)ethyl)piperazin-1-yl)-1H-benzo[d]imidazole] |  |  | 
6.22 |  | 6.10 | 5.70 |  |  | CCn1c(N2CCN(CCCN3CCOCC3)CC2)nc2c(Br)c(Br)c(Br)c(Br)c21 [Compound 450] |  |  | 

The next lines start with the compound.

Compound | pIC50 [1] | pIC50 [2] | pIC50 [3] | pIC50 [4] | remaining activity at 1 µM (Flt3(D835Y)(h)) [%] | remaining activity at 1 µM (Lck(h)) [%] | TGI (%) [5] [%] | tumor growth inhibition (in words) [5] | solubility at 24 h [6] [µM]
NCCCNc1nc2c(Br)c(Br)c(Br)c(Br)c2[nH]1 [Compound 11, N-(3-aminopropyl)-4,5,6,7-tetrabromo-1H-benzo[d]imidazol-2-amine] | 5.99 | 5.46 | 5.24 | 5.33 |  |  |  |  | 
Brc1c(Br)c(Br)c2[nH]c(N3CCNCC3)nc2c1Br [Compound 20, 4,5,6,7-tetrabromo-2-(piperazin-1-yl)-1H-benzo[d]imidazole] | 6.32 |  | 5.22 | 5.61 |  |  | −57.8 | most pronounced tumor growth inhibition | 81 (≈ 41.9 µg/mL)
NC1CCC(Nc2nc3c(Br)c(Br)c(Br)c(Br)c3[nH]2)CC1 (stereo not shown) [Compound 87, N1-(4,5,6,7-tetrabromo-1H-benzo[d]imidazol-2-yl)cyclohexane-1,4-diamine] | 5.38 | 5.24 | 5.04 | 5.25 |  |  |  |  | 
NC1CCCC(Nc2nc3c(Br)c(Br)c(Br)c(Br)c3[nH]2)C1 (stereo not shown) [Compound 336, N1-(4,5,6,7-tetrabromo-1H-benzo[d]imidazol-2-yl)cyclohexane-1,3-diamine] | 5.59 |  |  | 5.21 |  |  |  |  | 
Brc1c(Br)c(Br)c2[nH]c(N[C@H]3COC[C@@H]3N3CCCC3)nc2c1Br [Compound 337, 4,5,6,7-tetrabromo-N-((3R,4R)-tetrahydro-4-(pyrrolidin-1-yl)furan-3-yl)-1H-benzo[d]imidazol-2-amine] | 5.61 |  | 5.35 | 5.75 |  |  |  |  | 
Brc1c(Br)c(Br)c2[nH]c(N[C@H]3COC[C@@H]3N3CCCCC3)nc2c1Br [Compound 338, 4,5,6,7-tetrabromo-N-((3R,4R)-tetrahydro-4-(piperidin-1-yl)furan-3-yl)-1H-benzo[d]imidazol-2-amine] | 5.48 |  | 5.25 | 5.60 |  |  |  |  | 
NCc1ccccc1CNc1nc2c(Br)c(Br)c(Br)c(Br)c2[nH]1 [Compound 349, N-(2-(aminomethyl)benzyl)-4,5,6,7-tetrabromo-1H-benzo[d]imidazol-2-amine] | 5.80 |  | 5.22 | 5.56 |  |  |  |  | 
C[C@@H]1CN(c2nc3c(Br)c(Br)c(Br)c(Br)c3[nH]2)[C@@H](C)CN1 [Compound 364, 4,5,6,7-tetrabromo-2-((2S,5R)-2,5-dimethylpiperazin-1-yl)-1H-benzo[d]imidazole] | 5.71 |  | 5.25 | 5.80 |  |  |  |  | 
CC(C)NC1CCCCC1Nc1nc2c(Br)c(Br)c(Br)c(Br)c2[nH]1 (stereo not shown) [Compound 369, N1-(4,5,6,7-tetrabromo-1H-benzo[d]imidazol-2-yl)-N2-isopropylcyclohexane-1,2-diamine] | 5.89 |  | 5.21 | 5.80 |  |  |  |  | 
CN(C)C1CCCN(c2nc3c(Br)c(Br)c(Br)c(Br)c3[nH]2)C1 (stereo not shown) [Compound 378, 1-(4,5,6,7-tetrabromo-1H-benzo[d]imidazol-2-yl)-N,N-dimethylpiperidin-3-amine] | 5.21 |  | 5.04 | 5.21 |  |  |  |  | 
CCCCCNC1CCCCC1Nc1nc2c(Br)c(Br)c(Br)c(Br)c2[nH]1 (stereo not shown) [Compound 413, N1-(4,5,6,7-tetrabromo-1H-benzo[d]imidazol-2-yl)-N2-pentylcyclohexane-1,2-diamine] | 5.81 |  | 5.48 | 5.89 |  |  |  |  | 
Brc1c(Br)c(Br)c2c(Br)n[nH]c2c1Br [Compound K64, 3,4,5,6,7-pentabromo-1H-indazole, reference compound] | < 5.00 | < 5.00 |  |  |  |  |  |  | 
CN(C)c1nc2c(Br)c(Br)c(Br)c(Br)c2n1CC(=O)O [Compound K66, 1-carboxymethyl-2-dimethylamino-4,5,6,7-tetrabromo-benzimidazole, reference compound] | < 5.00 | < 5.00 |  |  |  |  |  |  | 
CN(C)c1nc2c(Br)c(Br)c(Br)c(Br)c2[nH]1 [DMAT, 2-dimethylamino-4,5,6,7-tetrabromo-1H-benzimidazole, reference compound] | 5.50 | 5.09 |  | < 5.00 |  |  |  |  | < 10
Brc1c(Br)c(Br)c2[nH]nnc2c1Br [TBB, 4,5,6,7-tetrabromo-1Hbenzotriazole, reference compound] | < 5.00 | < 5.00 |  |  |  |  |  |  | 
Brc1c(Br)c(Br)c2[nH]cnc2c1Br [TBI, 4,5,6,7-tetrabromo-1H-benzimidazole, reference compound] | < 5.00 | < 5.00 |  |  |  |  |  |  | 

From US8604217B2, “Compound, a process for its preparation, a pharmaceutical composition, use of a compound, a method for modulating or regulating serine/threonine kinases and a serine/threonine kinases modulating agent” (Selvita S.A., priority 2009, dated 2013)
